Measured values: PubChem BioAssay (NCI)
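Results reflect a 48-hour exposure of cells in 96-well plates to compound at five concentrations. At the GI50, growth is halved. TGI denotes the concentration required for complete inhibition of growth.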

Tests used:
Assay in all cases: NCI anticancer screen, dose series, 48 h
[1] = system: OVCAR-3 ovarian
[2] = system: SN12C renal
[3] = system: PC-3 prostate
[4] = system: SK-MEL-2 melanoma
[5] = system: SK-MEL-5 melanoma
[6] = system: SNB-75 CNS
[7] = system: K-562 leukemia
[8] = system: LOX IMVI melanoma
[9] = system: A498 renal
[10] = system: SF-539 CNS
[11] = system: KM12 colon
[12] = system: A549 NSCLC
[13] = system: EKVX NSCLC
[14] = system: HOP-92 NSCLC
[15] = system: NCI/ADR-RES ovarian
[16] = system: CAKI-1 renal
[17] = system: HT29 colon
[18] = system: DU-145 prostate
[19] = system: RPMI-8226 leukemia
[20] = system: SK-OV-3 ovarian
[21] = system: HCT-15 colon
[22] = system: UACC-257 melanoma
[23] = system: SNB-19 CNS
[24] = system: CCRF-CEM leukemia
[25] = system: NCI-H522 lung
[26] = system: HS 578T breast
[27] = system: TK-10 renal
[28] = system: MOLT-4 leukemia
[29] = system: IGROV1 ovarian
[30] = system: NCI-H23 lung
[31] = system: M14 melanoma
[32] = system: SK-MEL-28 melanoma
[33] = system: SF-268 CNS
[34] = system: OVCAR-5 ovarian
[35] = system: HCC-2998 colon
[36] = system: HL-60(TB) leukemia
[37] = system: MDA-MB-231 breast
[38] = system: BT-549 breast
[39] = system: MDA-MB-435
[40] = system: SW-620 colon
[41] = system: SR leukemia
[42] = system: MALME-3M melanoma
[43] = system: UACC-62 melanoma
[44] = system: ACHN renal
[45] = system: SF-295 CNS
[46] = system: MCF7 breast
[47] = system: NCI-H460 lung
[48] = system: OVCAR-4 ovarian
[49] = system: T-47D breast
[50] = system: 786-0 renal
[51] = system: HCT-116 colon
[52] = system: COLO 205 colon

`COc1ccc2c(OCc3nnc4ccc(-c5ccccc5)nn34)ccnc2c1` was tested, and the GI50 [1] was greater than 100 µM, the TGI [1] was greater than 100 µM and the GI50 [2] was greater than 100 µM. It also gave a TGI [2] greater than 100 µM, a GI50 [3] greater than 100 µM and a TGI [3] greater than 100 µM. It also gave a GI50 [4] greater than 91.1 µM, a TGI [4] greater than 100 µM and a GI50 [5] greater than 100 µM. The TGI [5] was greater than 100 µM, the GI50 [6] was greater than 100 µM and the TGI [6] was greater than 100 µM. For the same compound, the GI50 [7] was greater than 100 µM, the TGI [7] was greater than 100 µM and the GI50 [8] was greater than 100 µM. The TGI [8] was greater than 100 µM, the GI50 [9] was greater than 100 µM and the TGI [9] was greater than 100 µM. It also gave a GI50 [10] greater than 100 µM, a TGI [10] greater than 100 µM and a GI50 [11] greater than 100 µM. The TGI [11] was greater than 100 µM, the GI50 [12] was greater than 100 µM and the TGI [12] was greater than 100 µM. It also gave a GI50 [13] greater than 100 µM, a TGI [13] greater than 100 µM and a GI50 [14] greater than 100 µM. It also gave a TGI [14] greater than 100 µM, a GI50 [15] greater than 100 µM and a TGI [15] greater than 100 µM. For the same compound, the GI50 [16] was greater than 100 µM, the TGI [16] was greater than 100 µM and the GI50 [17] was greater than 100 µM. For the same compound, the TGI [17] was greater than 100 µM, the GI50 [18] was greater than 100 µM and the TGI [18] was greater than 100 µM. The GI50 [19] was greater than 100 µM, the TGI [19] was greater than 100 µM and the GI50 [20] was greater than 100 µM. For the same compound, the TGI [20] was greater than 100 µM, the GI50 [21] was greater than 100 µM and the TGI [21] was greater than 100 µM. It also gave a GI50 [22] greater than 100 µM, a TGI [22] greater than 100 µM and a GI50 [23] greater than 100 µM. The TGI [23] was greater than 100 µM, the GI50 [24] was greater than 58.1 µM and the TGI [24] was greater than 100 µM. It also gave a GI50 [25] of 20.1 µM, a TGI [25] greater than 43.8 µM and a GI50 [26] greater than 100 µM. For the same compound, the TGI [26] was greater than 100 µM, the GI50 [27] was greater than 100 µM and the TGI [27] was greater than 100 µM. For the same compound, the GI50 [28] was greater than 100 µM, the TGI [28] was greater than 100 µM and the GI50 [29] was greater than 100 µM. For the same compound, the TGI [29] was greater than 100 µM, the GI50 [30] was greater than 100 µM and the TGI [30] was greater than 100 µM. For the same compound, the GI50 [31] was greater than 100 µM, the TGI [31] was greater than 100 µM and the GI50 [32] was greater than 100 µM. It also gave a TGI [32] greater than 100 µM, a GI50 [33] greater than 100 µM and a TGI [33] greater than 100 µM. For the same compound, the GI50 [34] was greater than 100 µM, the TGI [34] was greater than 100 µM and the GI50 [35] was greater than 100 µM. The TGI [35] was greater than 100 µM, the GI50 [36] was greater than 100 µM and the TGI [36] was greater than 100 µM. For the same compound, the GI50 [37] was greater than 20.3 µM, the TGI [37] was greater than 100 µM and the GI50 [38] was greater than 100 µM. For the same compound, the TGI [38] was greater than 100 µM, the GI50 [39] was greater than 100 µM and the TGI [39] was greater than 100 µM. For the same compound, the GI50 [40] was greater than 100 µM, the TGI [40] was greater than 100 µM and the GI50 [41] was 5.64 µM. For the same compound, the TGI [41] was greater than 100 µM, the GI50 [42] was greater than 100 µM and the TGI [42] was greater than 100 µM. The GI50 [43] was greater than 100 µM and the TGI [43] was greater than 100 µM.
`C/C(=C\c1csc(C)n1)[C@@H]1C[C@@H]2O[C@@H]2CCC[C@H](C)[C@H](O)[C@@H](C)C(=O)C(C)(C)[C@@H](O)CC(=O)O1` gave a TGI [44] greater than 100 µM, a TGI [45] of less than 0.0001 µM and a TGI [46] of 0.349 µM. For the same compound, the TGI [3] was greater than 100 µM, the TGI [6] was less than 0.0001 µM and the TGI [47] was greater than 100 µM. The GI50 [48] was 23 µM, the TGI [48] was greater than 100 µM and the TGI [49] was greater than 100 µM. For the same compound, the TGI [9] was 0.333 µM, the TGI [10] was less than 0.0001 µM and the TGI [11] was greater than 100 µM. It also gave a TGI [12] greater than 100 µM, a TGI [50] greater than 100 µM and a TGI [13] of 0.525 µM. The TGI [14] was 0.608 µM, the TGI [15] was 0.000598 µM and the TGI [17] was 0.000586 µM. For the same compound, the TGI [18] was 0.00464 µM, the TGI [20] was 0.398 µM and the TGI [22] was greater than 100 µM. It also gave a TGI [23] greater than 100 µM, a TGI [24] greater than 100 µM and a TGI [25] of less than 0.0001 µM. The TGI [27] was greater than 100 µM, the TGI [28] was greater than 100 µM and the TGI [29] was greater than 100 µM. For the same compound, the TGI [51] was greater than 100 µM, the TGI [33] was greater than 100 µM and the TGI [35] was less than 0.0001 µM. For the same compound, the TGI [36] was greater than 100 µM, the TGI [38] was greater than 100 µM and the TGI [39] was less than 0.0001 µM. The TGI [40] was 18.7 µM, the TGI [52] was 0.0804 µM and the TGI [41] was 0.00609 µM.
